{"source": "patent US20160361250A1", "about": "“ACTIVE INGREDIENTS STIMULATING TYPE 2 AND/OR TYPE 3 HUMAN BETA-DEFENSINS AND COSMETIC OR PHARMACEUTICAL COMPOSITIONS CONTAINING SUCH ACTIVE INGREDIENTS” (BASF Beauty Care Solutions France S.A.S., priority 2002, published 2016)", "key": {"IL8 [1]": {"test_system": "IL8", "test": "ELISA of IL8 in supernatants, 2nd step", "assay_type": "cell-based, human", "settings": "supernatant, 16 h", "procedure": "(§1) The supernatants of the actives, whose capacity to induce defensins has been confirmed, are tested using an ELISA kit in order to assay MIP3α, IL8 and IL1α levels. These assays are performed on the same supernatant (200 μL) by carrying out a series dilution (by 1.5 to assay MIP3α and IL8, then by 2 to assay IL1). The levels are then referred to the RNA concentration assayed in each well in order to compare results with each other.\n(§2) Quantitative RT-PCR makes it possible to obtain a basal value for the defensin expression for untreated controls. The results are therefore expressed as a percentage of the control. IL8, IL1 and MIP3 cytokine levels are given as pg/mL/RNA concentration (in ng/μL)."}, "hBD3 [2]": {"test_system": "hBD3", "test": "Quantitative RT-PCR of hBD3 expression, 2nd step (dose-effect)", "assay_type": "cell-based, human", "settings": "for hBD3 expression, percentage of the control: 16 h, untreated control = 100%", "procedure": "(§3) The actives are then tested on 5 concentrations (from 0.001% to max viability) in quadruplicate on normal human keratinocytes as a monolayer on 96-well culture plates, in a specific medium enriched with calcium and free of serum (CaCl2 1.7 mM) (same conditions as in example 1).\n(§4) After 16 h, the supernatants are collected and cells are dry frozen at −80° C. after rinsing in PBS.\n(§5) Total RNA are extracted using a 96-well extraction kit on silica columns and assayed using a 96-well spectrophotometer at 260 and 280 nm. RNA are diluted to 5 ng/μL.\n(§6) Quantitative RT-PCR in 96 wells on actin, hBD2 and hBD3 is initially carried out on 50 ng of RNA, using a one-step kit containing Sybrgreen, in a fluorescence thermocycler with the same primers as previously (0.5 μM). The amplification program is as follows: 50° C., 30 min; 94° C., 15 min; (94° C., 15 s; 60° C., 30 s; 72° C., 30 s)×50 cycles; 90° C., 1 min; 30° C., 1 min; 50° C. to 95° C. (10 s every ° C.); 14° C., infinite.\n(§7) A study of the fusion graphs makes it possible to verify the specificity of amplified products. The fluorescence graph as a function of the number of cycles gives the C(T) value corresponding to the number of cycles needed to obtain initiation of the fluorescence signal. The more an mRNA is expressed, the lower the C(T) value. Calculation of Sgene=(½)^C(T) for each RNA takes into consideration the exponential increase in the number of copies during amplification. The Sgene hBD2/Sgene actin and Sgene hBD3/Sgene actin ratios can be compared with those of the untreated control to give the percentage stimulation produced.\nas §2\n(§8) In the same way as in example 2, retinoic acid and retinol were tested for their capacity to stimulate hBD2 and/or hBD3."}, "hBD2 [3]": {"test_system": "hBD2", "test": "Qualitative RT-PCR of hBD2 expression, 1st step of the screening method", "assay_type": "cell-based", "settings": "100 μg/mL; normal human keratinocytes, 16 h", "procedure": "(§9) A 1% concentration of the actives is tested on normal human keratinocytes, as a monolayer, on 96-well culture plates, in a specific medium enriched with calcium and free of serum (final concentration 1.7 mM).\n(§10) At 80% confluence, cells are contacted with the actives (1 active per well) for 16 h. An untreated control and 2 positive controls (TNFα 100 ng/mL for hBD2 and IFNγ 100 ng/mL for hBD3) are set up in parallel on the same culture plate.\nas §4\n(§11) Total RNA are extracted using a 96-well extraction kit on silica columns and assayed using a 96-well spectrophotometer at 260 and 280 nm. RNA are diluted to 5 ng/mL.\n(§12) Qualitative one-step RT-PCR is performed on 50 ng of initial RNA in 96 wells, on actin, hBD2 and hBD3. The primers are used at a concentration of 0.5 μM and arc taken from the literature:—hBD2: sense: 5′-[…]-3′; hBD2 antisense 5′-[…]-3′ (Harder J. et al., A peptide antibiotic from human skin. Nature 1997; 387 : 861); hBD3 sense: 5′-[…]-3′; hBD3 antisense: 5′-[…]-3′; actin sense: 5′-[…]-3′; actin antisense: 5′-[…]-3′ (Harder J. et al., Isolation and characterization of human β-defensin-3, a novel human inducible peptide antibiotic. J Biol Chem 2001, 276 : 5707-5713).\n(§13) Samples are placed in a thermocycler and follow a common amplification program: 50° C., 30 min; 94° C., 2 min, (94° C., 30 s; 60° C., 30 s; 68° C., 30 s), 32 cycles for the defensins and 30 cycles for actin; 72° C., 10 min; 14° C., infinite.\n(§14) After amplification, the products are mixed at a rate of 3 μL of actin amplification products+6 μL of hBD2 amplification products+6 μL of hBD3 amplification products. 5 μL of a mixture of charge buffer and water (⅔) are added and the final 20 μL are deposited on 2% premoulded agarose gel. The samples migrate in 30 minutes and the bands are visualised under UV in a dark room then digitally photographed.\n(§15) Photos of the gels are analysed by image processing software which quantifies the intensity of the bands. As the basal level of defensin expression (untreated control) is not detectable, the intensity ratios of the hBD2/actin and hBD3/actin bands can be compared, for example with those obtained for the positive control (treated with TNFα for hBD2 and IFNγ for hBD3) and indicate any stimulation of the expression of the β-defensin in question\n(§16) Since the basal level of defensin expression is generally not detectable, stimulation of hBD2 and hBD3 is expressed as a percentage of the positive controls (TNFα for hBD2 and IFNγ for hBD3). IL8 and MIP3α levels are given as pg/mL/RNA concentration (in ng/μL)."}, "hBD2 and/or hBD3 [4]": {"test_system": "hBD2 and/or hBD3", "test": "2nd step of the screening method, overall outcome (quantitative RT-PCR plus MIP3α/IL8/IL1α ELISA)", "assay_type": "cell-based, human", "procedure": "The actives which best satisfied the criteria for the first step undergo a dose-effect analysis.\nas §3, §4, §5, §6, §7\nThe supernatants of the actives, whose capacity to induce defensins has been confirmed, are tested using an ELISA kit in order to assay MIP3α, IL8 and IL1α levels. These assays are performed on the same supernatant (200 μL) by carrying out a series dilution (by 1.5 to assay MIP3α and IL8, then by 2 to assay IL1). […]"}, "MIP3α [5]": {"test_system": "MIP3α", "test": "ELISA of MIP3α secreted into the culture medium, 1st step", "assay_type": "cell-based, human", "settings": "100 μg/mL; keratinocyte supernatant, 16 h", "procedure": "(§17) At the end of this first step, the actives having exerted an effect on β-defensin expression are selected and the supernatants corresponding to these actives are then tested using an ELISA kit in order to determine the levels of MIP3α, IL1 and IL8 secreted into the culture medium under the effect of the actives. The levels are then referred to the RNA concentration assayed in each well in order to compare results with each other.\nas §16"}, "IL1α": {"test_system": "IL1α", "test": "ELISA of IL1α in supernatants, 2nd step", "assay_type": "cell-based, human", "settings": "supernatant, 16 h", "procedure": "as §1, §2"}, "hBD3 [6]": {"test_system": "hBD3", "test": "Qualitative RT-PCR of hBD3 expression, 1st step of the screening method", "assay_type": "cell-based", "settings": "100 μg/mL; normal human keratinocytes, 16 h", "procedure": "as §10, §4, §11, §12, §13, §14, §15, §16"}, "IL8 [7]": {"test_system": "IL8", "test": "ELISA of IL8 secreted into the culture medium, 1st step", "assay_type": "cell-based, human", "settings": "100 μg/mL; keratinocyte supernatant, 16 h", "procedure": "as §17, §16"}, "MIP3α [8]": {"test_system": "MIP3α", "test": "ELISA of MIP3α in supernatants, 2nd step", "assay_type": "cell-based, human", "settings": "supernatant, 16 h", "procedure": "as §1, §2"}, "hBD2 and/or hBD3 [9]": {"test_system": "hBD2 and/or hBD3", "test": "1st step of the screening method, overall outcome (defensin RT-PCR plus MIP3α/IL8 ELISA)", "assay_type": "cell-based, human", "settings": "concentrations of Tables I and II", "procedure": "as §9, §10, §4, §11\nQualitative one-step RT-PCR is performed on 50 ng of initial RNA in 96 wells, on actin, hBD2 and hBD3. The primers are used at a concentration of 0.5 μM and arc taken from the literature:—hBD2: sense: 5′-[…]-3′; hBD2 antisense 5′-[…]-3′ (Harder J. et al., A peptide antibiotic from human skin. Nature 1997; 387 : 861); hBD3 sense: 5′-[…]-3′; hBD3 antisense: 5′-[…]-3′; actin sense: 5′-[…]-3′; actin antisense: 5′-[…]-3′ (Harder J. et al., Isolation and characterization of human β-defensin-3, a novel human inducible peptide antibiotic. J Biol Chem 2001, 276 : 5707-5713). […]\nPhotos of the gels are analysed by image processing software which quantifies the intensity of the bands. […]"}, "hBD2 [10]": {"test_system": "hBD2", "test": "Quantitative RT-PCR of hBD2 expression, 2nd step (dose-effect)", "assay_type": "cell-based, human", "settings": "for hBD2 expression, percentage of the control: 16 h, untreated control = 100%", "procedure": "as §3, §4, §5, §6, §7, §2, §8"}, "animals": {"test_system": "animals", "settings": "in vivo"}, "human volunteers": {"test_system": "human volunteers", "settings": "in vivo"}}, "data": [{"compound": "CC/C=C\\C[C@H]1C(=O)CC[C@@H]1CC(=O)O", "note": "[Jasmonic Acid]", "values": [{"measurement": "IL8 level", "setting": "IL8 [1]; conc. 100 μg/mL", "result": "37.9 pg/mL/RNA concentration (in ng/μL)"}, {"measurement": "IL8 level", "setting": "IL8 [1]; conc. 500 μg/mL", "result": "103.3 pg/mL/RNA concentration (in ng/μL)"}, {"measurement": "hBD3 expression, percentage of the control", "setting": "hBD3 [2]; conc. 100 μg/mL", "result": 477, "unit": "%"}, {"measurement": "hBD3 expression, percentage of the control", "setting": "hBD3 [2]; conc. 500 μg/mL", "result": 26919, "unit": "%"}, {"measurement": "HBD2 expression, percentage of the positive control (TNFα)", "setting": "hBD2 [3]", "result": 7, "unit": "%"}, {"measurement": "induction of defensins 2 and/or 3 (in words)", "setting": "hBD2 and/or hBD3 [4]; jasmonic acid 100 μg/mL, α-MSH as in Table III", "result": "capable of inducing defensins 2 and/or 3"}, {"measurement": "satisfying the criteria of the invention (in words)", "setting": "hBD2 and/or hBD3 [4]; second step", "result": "stimulate hBD2 and/or hBD3 without triggering the expression of MIP3, IL8 or IL1 cytokines"}, {"measurement": "MIP3α level", "setting": "MIP3α [5]", "result": "6 pg/mL/RNA concentration (in ng/μL)"}, {"measurement": "IL1α level", "setting": "IL1α; conc. 100 μg/mL", "result": "31.2 pg/mL/RNA concentration (in ng/μL)"}, {"measurement": "IL1α level", "setting": "IL1α; conc. 500 μg/mL", "result": "97.1 pg/mL/RNA concentration (in ng/μL)"}, {"measurement": "HBD3 expression, percentage of the positive control (IFNγ)", "setting": "hBD3 [6]", "result": 0, "unit": "%"}, {"measurement": "IL8 level", "setting": "IL8 [7]", "result": "25.3 pg/mL/RNA concentration (in ng/μL)"}, {"measurement": "MIP3α level", "setting": "MIP3α [8]; conc. 100 μg/mL", "result": "4.6 pg/mL/RNA concentration (in ng/μL)"}, {"measurement": "MIP3α level", "setting": "MIP3α [8]; conc. 500 μg/mL", "result": "13.6 pg/mL/RNA concentration (in ng/μL)"}, {"measurement": "satisfying the criteria for the first step (in words)", "setting": "hBD2 and/or hBD3 [9]", "result": "stimulate hBD2 and/or hBD3 without triggering the expression of MIP3 and IL8 cytokines"}, {"measurement": "hBD2 expression, percentage of the control", "setting": "hBD2 [10]; conc. 100 μg/mL", "result": 86, "unit": "%"}, {"measurement": "hBD2 expression, percentage of the control", "setting": "hBD2 [10]; conc. 500 μg/mL", "result": 134, "unit": "%"}]}, {"compound": "CC1=C(/C=C/C(C)=C/C=C/C(C)=C/C(=O)O)C(C)(C)CCC1", "note": "[Retinoic acid]", "values": [{"measurement": "hBD3 expression, percentage of the control", "setting": "hBD3 [2]; conc. 0.005%", "result": 161, "unit": "%"}, {"measurement": "irritation / allergy, primary skin irritation (in words)", "setting": "animals", "result": "not inducing any inflammatory, irritation or intolerance reaction"}, {"measurement": "irritation / allergy, irritant or sensitizing potential (in words)", "setting": "human volunteers", "result": "not inducing any inflammatory, irritation or intolerance reaction"}, {"measurement": "hBD2 expression, percentage of the control", "setting": "hBD2 [10]; conc. 0.005%", "result": 26, "unit": "%"}]}, {"compound": "CC1=C(/C=C/C(C)=C/C=C/C(C)=C/CO)C(C)(C)CCC1", "note": "[Retinol]", "values": [{"measurement": "effect on hBD3 (in words)", "setting": "hBD3 [2]; 0.01%", "result": "strongly stimulates hBD3"}, {"measurement": "hBD3 expression, percentage of the control", "setting": "hBD3 [2]; conc. 0.01%", "result": "17 562%"}, {"measurement": "irritation / allergy, primary skin irritation (in words)", "setting": "animals", "result": "not inducing any inflammatory, irritation or intolerance reaction"}, {"measurement": "irritation / allergy, irritant or sensitizing potential (in words)", "setting": "human volunteers", "result": "not inducing any inflammatory, irritation or intolerance reaction"}, {"measurement": "effect on hBD2 (in words)", "setting": "hBD2 [10]; 0.01%", "result": "weakly stimulates hBD2"}, {"measurement": "hBD2 expression, percentage of the control", "setting": "hBD2 [10]; conc. 0.01%", "result": 168, "unit": "%"}]}]}
